Tests used:
AVP gene = assay: mRNA expression of AVP in primary cultures of rat hypothalamic cells; assay type: cell-based
Excerpt: Alternatively, the observed in vivo effect of ticagrelor in mice can be the due to a ticagrelor metabolite such as AR-C124910XX or AR-C133913XX, which may bind to hypothalamic cells at a site other than P2Y12 receptor and exert inhibitory effect on the production of AVP. […] Based on this observation on cultured hypothalamic cells and the unequivocal data obtained from the primary cultures of rat inner medullary collecting duct cells, the observed in vivo effect of ticagrelor on decreased AVP production is mediated by the action of one or both metabolites of ticagrelor (AR-C124910XX or AR-C133913XX).

[1] = major metabolite of ticagrelor; cited from earlier work
rodent models of ADPKD = conditions: by reducing cAMP production in the kidney; cited from earlier work
rats = conditions: administration to rats
Excerpt: The blockade of P2Y12 receptor by PSB-0739 on AVP gene expression in cultured rat hypothalamic cells was studied.

mice = assay: urinary concentrating ability and AVP production in mice; assay type: in vivo; conditions: for urinary excretion of AVP: ticagrelor effect dose-dependent
Description: The effect of prasugrel on urinary concentration ability in mice was also tested and the same findings as clopidogrel were observed.
Both clopidogrel bisulfate and prasugrel belong to thienopyridine group of drugs, and thus both are prodrugs that need to be metabolized in the liver releasing their active metabolites that block the platelet P2Y12 receptor.

[2] = tested on: rat inner medullary collecting duct cells; assay: dDAVP-induced AQP2/AQP3 mRNA expression and cAMP production in primary cultures of rat inner medullary collecting duct cells; assay type: cell-based
Excerpt: In sum, ticagrelor binds to P2Y12 receptor in medullary collecting duct cells and enhances the effect on dDAVP on the mRNA expression of AQP2 and AQP3 water channels and cAMP production. Thus, the observed decreased urinary concentration in ticagrelor-treated mice was not because of the effect of ticagrelor on renal medullary collecting duct.

CYP3A4 = CYP3A4 (Homo sapiens, UniProt P08684); conditions: cited from earlier work
vasopressin V2 receptor = vasopressin V2 receptor (Homo sapiens, UniProt P30518); conditions: chronic blockade of vasopressin V2 receptor; cited from earlier work
patients = conditions: in a vast majority of patients; cited from earlier work

Chain of vasopressin V2 receptor (P30518 whole entry, species assumed): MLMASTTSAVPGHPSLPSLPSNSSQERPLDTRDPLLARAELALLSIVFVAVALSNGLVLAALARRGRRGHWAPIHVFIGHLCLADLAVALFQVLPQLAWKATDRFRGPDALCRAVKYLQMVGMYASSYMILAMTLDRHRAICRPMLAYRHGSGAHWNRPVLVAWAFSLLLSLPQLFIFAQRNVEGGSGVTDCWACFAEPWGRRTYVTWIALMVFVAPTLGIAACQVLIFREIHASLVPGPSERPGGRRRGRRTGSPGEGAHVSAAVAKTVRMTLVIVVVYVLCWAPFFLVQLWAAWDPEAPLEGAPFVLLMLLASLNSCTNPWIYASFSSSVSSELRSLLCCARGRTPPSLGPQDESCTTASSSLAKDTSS
Chain of CYP3A4 (P08684 whole entry): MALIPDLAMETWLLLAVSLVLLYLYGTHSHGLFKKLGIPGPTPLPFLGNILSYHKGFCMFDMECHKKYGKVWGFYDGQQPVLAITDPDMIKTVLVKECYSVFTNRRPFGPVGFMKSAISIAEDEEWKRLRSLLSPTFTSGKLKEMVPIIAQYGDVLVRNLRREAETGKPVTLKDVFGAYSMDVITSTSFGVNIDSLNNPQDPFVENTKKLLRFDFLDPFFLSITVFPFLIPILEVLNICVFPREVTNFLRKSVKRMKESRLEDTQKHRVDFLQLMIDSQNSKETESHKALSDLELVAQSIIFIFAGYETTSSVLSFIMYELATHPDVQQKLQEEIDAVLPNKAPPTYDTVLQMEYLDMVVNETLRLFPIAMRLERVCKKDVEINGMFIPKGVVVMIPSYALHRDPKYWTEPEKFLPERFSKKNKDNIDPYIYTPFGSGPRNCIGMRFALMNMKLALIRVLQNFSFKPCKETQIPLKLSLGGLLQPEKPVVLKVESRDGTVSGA

For `Nc1ncnc2c1ncn2[C@@H]1O[C@H](COP(=O)(O)OP(=O)(O)O)[C@@H](O)[C@H]1O` [ADP], the “effect of PSB-0739 on AVP gene expression” value (AVP gene; cultured rat hypothalamic cells, combination with PSB-0739, 24 hours) was “blocked”.

For `CCCSc1nc(N[C@@H]2C[C@H]2c2ccc(F)c(F)c2)c2nnn([C@@H]3C[C@H](O)[C@@H](O)[C@H]3O)c2n1` [AR-C124910XX], the “where the metabolite is found” value [1] is listed as “mostly in plasma and feces”.

For `CCCSc1nc(N)c2nnn([C@@H]3C[C@H](OCCO)[C@@H](O)[C@H]3O)c2n1` [AR-C133913XX], the “where the metabolite is found” value [1] is listed as “urine and feces”.

In the case of `Cc1ccccc1C(=O)Nc1ccc(C(=O)N2CCCC(N(C)C)c3ccccc32)cc1` (centres unmarked) [OPC-31260], the cystogenesis (rodent models of ADPKD) is listed as “consistently inhibited”.

In the case of `Nc1c(S(=O)(=O)O)cc(Nc2ccc(Nc3ccccc3)c(S(=O)(=O)O)c2)c2c1C(=O)c1ccccc1C2=O` [PSB-0739], the “mRNA expression of the AVP gene” value (AVP gene; cultured rat hypothalamic cells, exposed for 24 hours, blockade of P2Y12 receptor) is reported as “significantly increased”.

With `COC(=O)[C@H](c1ccccc1Cl)N1CCc2sccc2C1` [clopidogrel] the AVP production (rats) was “increase”.

In the case of `CC(=O)Oc1cc2c(s1)CCN(C(C(=O)C1CC1)c1ccccc1F)C2` (centres unmarked) [prasugrel], the “protein abundance of AQP2 in the kidney medulla” value (mice; administered to mice) is reported as “significantly increased”, the urine concentrating ability (mice; administered to mice) is reported as “significantly increased” and the “urinary excretion of AVP” value (mice; administered to mice) is reported as “significantly increased”.

With `CCCSc1nc(N[C@@H]2C[C@H]2c2ccc(F)c(F)c2)c2nnn([C@@H]3C[C@H](OCCO)[C@@H](O)[C@H]3O)c2n1` [ticagrelor] the urine concentrating ability (mice; administered to mice) was “dilution of urine”, the “urinary excretion of AVP” value (mice; administered to mice) was “decreased” and the urine flow (mice; mice, dose-dependent) was “increased”. For the same compound, the “dDAVP-induced increase in cAMP production” value [2] was “did not interfere”, the “mRNA expression of dDAVP-induced AQP2 water channel protein” value [2] was “concentration-dependent increases” and the “mRNA expression of dDAVP-induced AQP3 water channel protein” value [2] was “concentration-dependent increases”. For the same compound, the “baseline mRNA expression of AVP” value (AVP gene; cultured hypothalamic cells) was roughly 1.8 fold.

For `Cc1ccccc1C(=O)Nc1ccc(C(=O)N2CCCC(O)c3cc(Cl)ccc32)c(C)c1` (centres unmarked) [tolvaptan], the metabolizing enzyme system (CYP3A4) is given as “metabolized by the CYP3A4 system”, the “endogenous production of AVP” value (vasopressin V2 receptor) is given as “increased” and the cystogenesis (rodent models of ADPKD) is given as “consistently inhibited”. The adverse effects (patients) was “severe polyuria (loss of water in the urine), nocturia (frequent urination in the night), thirst and dry mouth”.

— patent US20230277543A1, “COMPOSITIONS AND METHODS FOR TREATING DISEASES ASSOCIATED WITH ELEVATED ARGININE VASOPRESSIN LEVELS” (The United States Government As Represented By The …, priority 2022, published 2023)
